Test results published in PubChem BioAssay (NCI).
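Compound exposure: 48 hours, 5 concentrations, 96-well plates. TGI: concentration producing complete growth inhibition.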

How the values were obtained:
Assay in all cases: DTP human tumour cell line panel, 48 h
M14 melanoma = system: M14 melanoma
KM20L2 colon = system: KM20L2 colon
TK-10 renal = system: TK-10 renal
NCI-H226 lung = system: NCI-H226 lung
SF-539 CNS = system: SF-539 CNS
HOP-62 NSCLC = system: HOP-62 NSCLC
SN12C renal = system: SN12C renal
SF-268 CNS = system: SF-268 CNS
HT29 colon = system: HT29 colon
RXF 393 renal = system: RXF 393 renal
NCI-H460 lung = system: NCI-H460 lung
UACC-257 melanoma = system: UACC-257 melanoma
786-0 renal = system: 786-0 renal
DLD-1 colon = system: DLD-1 colon
DMS 273 small cell lung = system: DMS 273 small cell lung
EKVX NSCLC = system: EKVX NSCLC
NCI-H522 lung = system: NCI-H522 lung
LXFL 529 NSCLC = system: LXFL 529 NSCLC
ACHN renal = system: ACHN renal
OVCAR-8 ovarian = system: OVCAR-8 ovarian
KM12 colon = system: KM12 colon
SW-620 colon = system: SW-620 colon
MALME-3M melanoma = system: MALME-3M melanoma
LOX IMVI melanoma = system: LOX IMVI melanoma
OVCAR-5 ovarian = system: OVCAR-5 ovarian
DMS 114 small cell lung = system: DMS 114 small cell lung
COLO 205 colon = system: COLO 205 colon
NCI-H23 lung = system: NCI-H23 lung
M19-MEL melanoma = system: M19-MEL melanoma
HOP-92 NSCLC = system: HOP-92 NSCLC
OVCAR-3 ovarian = system: OVCAR-3 ovarian
UO-31 renal = system: UO-31 renal
SK-MEL-28 melanoma = system: SK-MEL-28 melanoma
OVCAR-4 ovarian = system: OVCAR-4 ovarian
A549 NSCLC = system: A549 NSCLC
SK-MEL-2 melanoma = system: SK-MEL-2 melanoma
SNB-75 CNS = system: SNB-75 CNS
SNB-78 CNS = system: SNB-78 CNS
HCC-2998 colon = system: HCC-2998 colon
HL-60(TB) leukemia = system: HL-60(TB) leukemia
SNB-19 CNS = system: SNB-19 CNS
CAKI-1 renal = system: CAKI-1 renal
SK-MEL-5 melanoma = system: SK-MEL-5 melanoma
U251 CNS = system: U251 CNS
SF-295 CNS = system: SF-295 CNS
NCI/ADR-RES ovarian = system: NCI/ADR-RES ovarian
PC-3 prostate = system: PC-3 prostate
UACC-62 melanoma = system: UACC-62 melanoma
MDA-MB-231 breast = system: MDA-MB-231 breast
SR leukemia = system: SR leukemia
MCF7 breast = system: MCF7 breast
T-47D breast = system: T-47D breast
CCRF-CEM leukemia = system: CCRF-CEM leukemia
HCT-15 colon = system: HCT-15 colon
SK-OV-3 ovarian = system: SK-OV-3 ovarian
MDA-MB-435 = system: MDA-MB-435
A498 renal = system: A498 renal
MDA-N = system: MDA-N
HCT-116 colon = system: HCT-116 colon
DU-145 prostate = system: DU-145 prostate
HS 578T breast = system: HS 578T breast
RPMI-8226 leukemia = system: RPMI-8226 leukemia
MOLT-4 leukemia = system: MOLT-4 leukemia
BT-549 breast = system: BT-549 breast
IGROV1 ovarian = system: IGROV1 ovarian
K-562 leukemia = system: K-562 leukemia
HOP-18 NSCLC = system: HOP-18 NSCLC

`Cc1cc(C)[n+]2c(c1)C=CC2` gave a TGI (M14 melanoma) of over 100000 nM, a TGI (KM20L2 colon) of over 100000 nM and a TGI (TK-10 renal) of over 100 µM. The TGI (NCI-H226 lung) was 60.8 µM, the TGI (SF-539 CNS) was 79.4 µM and the TGI (HOP-62 NSCLC) was over 100 µM. It also gave a TGI (SN12C renal) of over 100 µM, a TGI (SF-268 CNS) of over 100 µM and a TGI (HT29 colon) of over 100000 nM. For the same molecule, the TGI (RXF 393 renal) was 25.1 µM, the TGI (NCI-H460 lung) was over 100 µM and the TGI (UACC-257 melanoma) was over 100 µM. The TGI (786-0 renal) was over 100 µM, the TGI (DLD-1 colon) was over 100 µM and the TGI (DMS 273 small cell lung) was 4.24 µM. The TGI (EKVX NSCLC) was over 100 µM, the TGI (NCI-H522 lung) was 49.5 µM and the TGI (LXFL 529 NSCLC) was over 100 µM. For the same molecule, the TGI (ACHN renal) was over 100 µM, the TGI (OVCAR-8 ovarian) was over 100 µM and the TGI (KM12 colon) was over 100 µM. The TGI (SW-620 colon) was over 100 µM, the TGI (MALME-3M melanoma) was 8.57 µM and the TGI (LOX IMVI melanoma) was over 100 µM. For the same molecule, the TGI (OVCAR-5 ovarian) was over 100 µM, the TGI (DMS 114 small cell lung) was 93.3 µM and the TGI (COLO 205 colon) was 68.2 µM. The TGI (NCI-H23 lung) was 84.2 µM, the TGI (M19-MEL melanoma) was over 100 µM and the TGI (HOP-92 NSCLC) was over 100 µM. The TGI (OVCAR-3 ovarian) was 38.6 µM, the TGI (UO-31 renal) was over 100 µM and the TGI (SK-MEL-28 melanoma) was over 100 µM. The TGI (OVCAR-4 ovarian) was over 100 µM, the TGI (A549 NSCLC) was over 100 µM and the TGI (SK-MEL-2 melanoma) was 93.8 µM. For the same molecule, the TGI (SNB-75 CNS) was 41.9 µM, the TGI (SNB-78 CNS) was over 100 µM and the TGI (HCC-2998 colon) was over 100000 nM. It also gave a TGI (HL-60(TB) leukemia) of 26.3 µM, a TGI (SNB-19 CNS) of over 100 µM and a TGI (CAKI-1 renal) of over 100 µM. For the same molecule, the TGI (SK-MEL-5 melanoma) was 43.1 µM, the TGI (U251 CNS) was over 100000 nM and the TGI (SF-295 CNS) was 71.8 µM.
Molecule `NC(=Nc1ccccc1)N/N=C/c1c[nH]c2ccccc12` has a TGI (M14 melanoma) of 1530 nM, a TGI (KM20L2 colon) of 1090 nM and a TGI (TK-10 renal) of 18.9 µM. It also gave a TGI (NCI/ADR-RES ovarian) of 455 nM, a TGI (NCI-H226 lung) of 16.1 µM and a TGI (SF-539 CNS) of 1.92 µM. It also gave a TGI (HOP-62 NSCLC) of 9.47 µM, a TGI (SN12C renal) of 15.6 µM and a TGI (PC-3 prostate) of 12.1 µM. It also gave a TGI (SF-268 CNS) of 15 µM, a TGI (UACC-62 melanoma) of 6.84 µM and a TGI (HT29 colon) of 1540 nM. It also gave a TGI (RXF 393 renal) of 0.701 µM, a TGI (MDA-MB-231 breast) of 6.83 µM and a TGI (NCI-H460 lung) of 4.41 µM. For the same molecule, the TGI (SR leukemia) was over 50.1 µM, the TGI (MCF7 breast) was 15 µM and the TGI (T-47D breast) was 6.89 µM. The TGI (CCRF-CEM leukemia) was 41 µM, the TGI (HCT-15 colon) was 10.1 µM and the TGI (UACC-257 melanoma) was 12.2 µM. For the same molecule, the TGI (SK-OV-3 ovarian) was 4.14 µM, the TGI (786-0 renal) was 7.68 µM and the TGI (DLD-1 colon) was 30.2 µM. The TGI (DMS 273 small cell lung) was 13.8 µM, the TGI (EKVX NSCLC) was 25 µM and the TGI (NCI-H522 lung) was 0.306 µM. It also gave a TGI (MDA-MB-435) of 64.9 nM, a TGI (LXFL 529 NSCLC) of 14.4 µM and a TGI (ACHN renal) of 16.1 µM. The TGI (OVCAR-8 ovarian) was 3.98 µM, the TGI (KM12 colon) was 5.28 µM and the TGI (A498 renal) was 2120 nM. It also gave a TGI (SW-620 colon) of 5.02 µM, a TGI (MALME-3M melanoma) of 3.74 µM and a TGI (LOX IMVI melanoma) of 8.92 µM. For the same molecule, the TGI (OVCAR-5 ovarian) was 15 µM, the TGI (DMS 114 small cell lung) was 2.03 µM and the TGI (COLO 205 colon) was 0.67 µM. For the same molecule, the TGI (MDA-N) was 40.5 nM, the TGI (NCI-H23 lung) was 2.93 µM and the TGI (HCT-116 colon) was 8.67 µM. For the same molecule, the TGI (DU-145 prostate) was 2590 nM, the TGI (HOP-92 NSCLC) was 6.01 µM and the TGI (HS 578T breast) was 2170 nM. The TGI (OVCAR-3 ovarian) was 0.314 µM, the TGI (UO-31 renal) was 12.9 µM and the TGI (SK-MEL-28 melanoma) was 8.77 µM. The TGI (RPMI-8226 leukemia) was 46 µM, the TGI (MOLT-4 leukemia) was 48.4 µM and the TGI (BT-549 breast) was 16.9 µM. The TGI (OVCAR-4 ovarian) was 15 µM, the TGI (A549 NSCLC) was 15.4 µM and the TGI (SK-MEL-2 melanoma) was 4.95 µM. For the same molecule, the TGI (SNB-75 CNS) was 5.56 µM, the TGI (SNB-78 CNS) was 19.7 µM and the TGI (HCC-2998 colon) was 2350 nM. The TGI (HL-60(TB) leukemia) was 4.54 µM, the TGI (IGROV1 ovarian) was 32.7 µM and the TGI (SNB-19 CNS) was 14.8 µM. The TGI (K-562 leukemia) was 30.4 µM, the TGI (CAKI-1 renal) was 22.9 µM and the TGI (HOP-18 NSCLC) was 73 µM. It also gave a TGI (SK-MEL-5 melanoma) of 1.85 µM, a TGI (U251 CNS) of 2610 nM and a TGI (SF-295 CNS) of 0.423 µM.
